Assay results: PubChem BioAssay (NCI)
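Following 48 hours of exposure in 96-well plates, responses at five concentrations were used to interpolate endpoints linearly. The concentration for 50% growth inhibition is given as GI50. Definition used: TGI = concentration required for complete inhibition of growth.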

Tests used:
Assay in all cases: growth of human tumour cells (NCI), 48 h
A498 renal = tested on: A498 renal
NCI/ADR-RES ovarian = tested on: NCI/ADR-RES ovarian
HOP-92 NSCLC = tested on: HOP-92 NSCLC
NCI-H522 lung = tested on: NCI-H522 lung
HT29 colon = tested on: HT29 colon
MDA-MB-468 breast = tested on: MDA-MB-468 breast
DU-145 prostate = tested on: DU-145 prostate
T-47D breast = tested on: T-47D breast
MALME-3M melanoma = tested on: MALME-3M melanoma
NCI-H460 lung = tested on: NCI-H460 lung
SK-MEL-5 melanoma = tested on: SK-MEL-5 melanoma
HOP-62 NSCLC = tested on: HOP-62 NSCLC
786-0 renal = tested on: 786-0 renal
HL-60(TB) leukemia = tested on: HL-60(TB) leukemia
SNB-19 CNS = tested on: SNB-19 CNS
A549 NSCLC = tested on: A549 NSCLC
K-562 leukemia = tested on: K-562 leukemia
UACC-62 melanoma = tested on: UACC-62 melanoma
KM12 colon = tested on: KM12 colon
MOLT-4 leukemia = tested on: MOLT-4 leukemia
RXF 393 renal = tested on: RXF 393 renal
SN12C renal = tested on: SN12C renal
EKVX NSCLC = tested on: EKVX NSCLC
OVCAR-4 ovarian = tested on: OVCAR-4 ovarian
SF-295 CNS = tested on: SF-295 CNS
PC-3 prostate = tested on: PC-3 prostate
RPMI-8226 leukemia = tested on: RPMI-8226 leukemia
CCRF-CEM leukemia = tested on: CCRF-CEM leukemia
NCI-H23 lung = tested on: NCI-H23 lung
SR leukemia = tested on: SR leukemia
ACHN renal = tested on: ACHN renal
M14 melanoma = tested on: M14 melanoma
HS 578T breast = tested on: HS 578T breast
CAKI-1 renal = tested on: CAKI-1 renal
HCC-2998 colon = tested on: HCC-2998 colon
SW-620 colon = tested on: SW-620 colon
IGROV1 ovarian = tested on: IGROV1 ovarian
TK-10 renal = tested on: TK-10 renal
LOX IMVI melanoma = tested on: LOX IMVI melanoma
BT-549 breast = tested on: BT-549 breast
OVCAR-8 ovarian = tested on: OVCAR-8 ovarian
HCT-116 colon = tested on: HCT-116 colon
MCF7 breast = tested on: MCF7 breast
OVCAR-5 ovarian = tested on: OVCAR-5 ovarian
HCT-15 colon = tested on: HCT-15 colon
UACC-257 melanoma = tested on: UACC-257 melanoma
OVCAR-3 ovarian = tested on: OVCAR-3 ovarian
SK-OV-3 ovarian = tested on: SK-OV-3 ovarian
COLO 205 colon = tested on: COLO 205 colon
SK-MEL-28 melanoma = tested on: SK-MEL-28 melanoma
U251 CNS = tested on: U251 CNS
SF-268 CNS = tested on: SF-268 CNS
NCI-H226 lung = tested on: NCI-H226 lung

CC(=O)Nc1ccc(-n2cnc3cc(-c4ccc(O)cc4)ccc32)cc1F
GI50 (A498 renal): > 100 µM | TGI (A498 renal): > 100 µM | GI50 (NCI/ADR-RES ovarian): 2.78 µM | TGI (NCI/ADR-RES ovarian): > 100 µM | GI50 (HOP-92 NSCLC): 23.2 µM | TGI (HOP-92 NSCLC): > 100 µM | GI50 (NCI-H522 lung): 1.63 µM | TGI (NCI-H522 lung): 4.14 µM | GI50 (HT29 colon): 3.86 µM | TGI (HT29 colon): > 100 µM | GI50 (MDA-MB-468 breast): 1.25 µM | TGI (MDA-MB-468 breast): 4.68 µM | GI50 (DU-145 prostate): 4.33 µM | TGI (DU-145 prostate): > 100 µM | GI50 (T-47D breast): 4.02 µM | TGI (T-47D breast): > 100 µM | GI50 (MALME-3M melanoma): 3.35 µM | TGI (MALME-3M melanoma): > 100 µM | GI50 (NCI-H460 lung): 3.38 µM | TGI (NCI-H460 lung): > 100 µM | GI50 (SK-MEL-5 melanoma): 4.09 µM | TGI (SK-MEL-5 melanoma): > 100 µM | GI50 (HOP-62 NSCLC): 4.53 µM | TGI (HOP-62 NSCLC): > 100 µM | GI50 (786-0 renal): 6.8 µM | TGI (786-0 renal): > 100 µM | GI50 (HL-60(TB) leukemia): 1.23 µM | TGI (HL-60(TB) leukemia): 3.85 µM | GI50 (SNB-19 CNS): 4.73 µM | TGI (SNB-19 CNS): > 100 µM | GI50 (A549 NSCLC): 4.77 µM | TGI (A549 NSCLC): > 100 µM | GI50 (K-562 leukemia): 0.496 µM | TGI (K-562 leukemia): > 100 µM | GI50 (UACC-62 melanoma): 2.55 µM | TGI (UACC-62 melanoma): > 100 µM | GI50 (KM12 colon): 3.22 µM | TGI (KM12 colon): > 100 µM | GI50 (MOLT-4 leukemia): 2.67 µM | TGI (MOLT-4 leukemia): > 100 µM | GI50 (RXF 393 renal): 1.94 µM | TGI (RXF 393 renal): 6.14 µM | GI50 (SN12C renal): 5.8 µM | TGI (SN12C renal): > 100 µM | GI50 (EKVX NSCLC): 6.04 µM | TGI (EKVX NSCLC): > 100 µM | GI50 (OVCAR-4 ovarian): > 100 µM | TGI (OVCAR-4 ovarian): > 100 µM | GI50 (SF-295 CNS): 3.34 µM | TGI (SF-295 CNS): > 100 µM | GI50 (PC-3 prostate): 3.66 µM | TGI (PC-3 prostate): > 100 µM | GI50 (RPMI-8226 leukemia): 3.32 µM | TGI (RPMI-8226 leukemia): 16.4 µM | GI50 (CCRF-CEM leukemia): 3.01 µM | TGI (CCRF-CEM leukemia): > 100 µM | GI50 (NCI-H23 lung): 4.77 µM | TGI (NCI-H23 lung): > 100 µM | GI50 (SR leukemia): 0.377 µM | TGI (SR leukemia): 27 µM | GI50 (ACHN renal): 6.33 µM | TGI (ACHN renal): > 100 µM | GI50 (M14 melanoma): 3.39 µM | TGI (M14 melanoma): > 100 µM | GI50 (HS 578T breast): 2.61 µM | TGI (HS 578T breast): > 100 µM | GI50 (CAKI-1 renal): > 100 µM | TGI (CAKI-1 renal): > 100 µM | GI50 (HCC-2998 colon): 5.6 µM | TGI (HCC-2998 colon): > 100 µM | GI50 (SW-620 colon): 3.01 µM | TGI (SW-620 colon): > 100 µM | GI50 (IGROV1 ovarian): 6.21 µM | TGI (IGROV1 ovarian): > 100 µM | GI50 (TK-10 renal): 49.5 µM | TGI (TK-10 renal): > 100 µM | GI50 (LOX IMVI melanoma): 6.43 µM | TGI (LOX IMVI melanoma): > 100 µM | GI50 (BT-549 breast): 27 µM | TGI (BT-549 breast): > 100 µM | GI50 (OVCAR-8 ovarian): 3.48 µM | TGI (OVCAR-8 ovarian): > 100 µM | GI50 (HCT-116 colon): 4.21 µM | TGI (HCT-116 colon): > 100 µM | GI50 (MCF7 breast): 2.45 µM | TGI (MCF7 breast): > 100 µM | GI50 (OVCAR-5 ovarian): 6.22 µM | TGI (OVCAR-5 ovarian): > 100 µM | GI50 (HCT-15 colon): 0.831 µM | TGI (HCT-15 colon): > 100 µM | GI50 (UACC-257 melanoma): 21.5 µM | TGI (UACC-257 melanoma): > 100 µM | GI50 (OVCAR-3 ovarian): 3.06 µM | TGI (OVCAR-3 ovarian): > 100 µM | GI50 (SK-OV-3 ovarian): 5.05 µM | TGI (SK-OV-3 ovarian): > 100 µM | GI50 (COLO 205 colon): 3.47 µM | TGI (COLO 205 colon): > 100 µM | GI50 (SK-MEL-28 melanoma): 29.7 µM | TGI (SK-MEL-28 melanoma): > 100 µM | GI50 (U251 CNS): 3.19 µM | TGI (U251 CNS): > 100 µM | GI50 (SF-268 CNS): 9.66 µM | TGI (SF-268 CNS): > 100 µM | GI50 (NCI-H226 lung): 83.2 µM | TGI (NCI-H226 lung): > 100 µM
